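How tested: cells in 96-well plates exposed to compound for 48 hours at five concentrations. TGI denotes the concentration required for complete inhibition of growth.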
Key:
Assay in all cases: DTP human tumour cell line panel, 48 h
[1] = tested on: BT-549 breast
[2] = tested on: COLO 205 colon
[3] = tested on: DU-145 prostate
[4] = tested on: HL-60(TB) leukemia
[5] = tested on: HS 578T breast
[6] = tested on: HT29 colon
[7] = tested on: MALME-3M melanoma
[8] = tested on: MDA-MB-231 breast
[9] = tested on: NCI-H226 lung
[10] = tested on: SF-268 CNS
[11] = tested on: SK-MEL-5 melanoma
[12] = tested on: SW-620 colon
[13] = tested on: U251 CNS
[14] = tested on: HCC-2998 colon

SMILES: O=C(O)C(C1NCCS1)N1C(=O)c2ccccc2C1=O (stereo unspecified)
- TGI [1]: > 100 µM
- TGI [2]: > 100 µM
- TGI [3]: > 100 µM
- TGI [4]: > 100 µM
- TGI [5]: > 100 µM
- TGI [6]: > 100 µM
- TGI [7]: > 100 µM
- TGI [8]: > 100 µM
- TGI [9]: > 100 µM
- TGI [10]: > 100 µM
- TGI [11]: > 100 µM
- TGI [12]: > 100 µM
- TGI [13]: > 100 µM

SMILES: CSCCCNC(=O)c1csc(-c2csc(CCNC(=O)CNC(=O)OC(C)(C)C)n2)n1
- TGI [1]: > 100 µM
- TGI [2]: > 100 µM
- TGI [3]: > 100 µM
- TGI [14]: > 100 µM
- TGI [5]: > 100 µM
- TGI [6]: > 100 µM
- TGI [7]: > 100 µM
- TGI [8]: > 100 µM
- TGI [9]: > 100 µM
- TGI [10]: > 100 µM
- TGI [11]: > 100 µM
- TGI [12]: > 100 µM
- TGI [13]: > 100 µM

SMILES: C=C1C(=O)OC2/C=C(\CO)C3OC3C3OC3(C)CC(OC(=O)/C(=C/C)COC(C)=O)C12 (stereo unspecified)
- TGI [1]: 3.48 µM
- TGI [2]: 3.06 µM
- TGI [3]: 32.3 µM
- TGI [14]: 37.1 µM
- TGI [5]: 20.4 µM
- TGI [6]: 15.3 µM
- TGI [7]: 3.09 µM
- TGI [8]: 19.5 µM
- TGI [9]: 40.8 µM
- TGI [10]: 27.1 µM
- TGI [11]: 20.1 µM
- TGI [12]: 2.8 µM
- TGI [13]: 16.8 µM

SMILES: Nc1nc(N)c2ncn(Cc3ccccc3CO)c2n1
- TGI [1]: > 100 µM
- TGI [2]: > 100 µM
- TGI [3]: > 100 µM
- TGI [4]: > 100 µM
- TGI [5]: > 100 µM
- TGI [6]: > 100 µM
- TGI [7]: > 100 µM
- TGI [8]: > 100 µM
- TGI [9]: > 100 µM
- TGI [10]: > 100 µM
- TGI [11]: > 100 µM
- TGI [12]: > 100 µM
- TGI [13]: > 100 µM

SMILES: Fc1nc(-c2c3ccccc3c3sc4ccccc4n23)nc(N2CCOCCOCCOCCOCC2)n1
- TGI [1]: > 100 µM
- TGI [2]: > 100 µM
- TGI [3]: > 100 µM
- TGI [14]: > 100 µM
- TGI [5]: > 100 µM
- TGI [6]: > 100 µM
- TGI [7]: > 100 µM
- TGI [8]: > 100 µM
- TGI [9]: > 100 µM
- TGI [10]: > 100 µM
- TGI [11]: > 100 µM
- TGI [12]: > 100 µM
- TGI [13]: > 100 µM

SMILES: CCC(=O)NC(NNS(=O)(=O)c1ccc(C)cc1)(C(F)(F)F)C(F)(F)F
- TGI [1]: 91.8 µM
- TGI [2]: > 100 µM
- TGI [3]: > 100 µM
- TGI [14]: > 10 µM
- TGI [4]: > 100 µM
- TGI [5]: > 100 µM
- TGI [7]: > 100 µM
- TGI [8]: > 100 µM
- TGI [9]: > 100 µM
- TGI [10]: > 100 µM
- TGI [11]: > 100 µM
- TGI [12]: > 100 µM
- TGI [13]: > 10 µM

SMILES: COc1cc2c(cc1OCCCN1CCOCC1)N=C[C@@H]1CCCN1C2=O
- TGI [1]: > 100 µM
- TGI [2]: 4.55 µM
- TGI [3]: 76.9 µM
- TGI [4]: 29.6 µM
- TGI [5]: > 100 µM
- TGI [6]: 47.7 µM
- TGI [7]: 33.6 µM
- TGI [8]: > 100 µM
- TGI [9]: 65.9 µM
- TGI [10]: > 100 µM
- TGI [11]: 27.4 µM
- TGI [12]: 13.8 µM
- TGI [13]: > 100 µM
